Measurements as given in PMC11046985 (Neuro-Oncology Advances, 2024).
Where two headings read alike, the source gives them in different places.

Tests used:
[1] = Afatinib plasma concentration, HPLC-MS/MS, phase I pulsatile afatinib; type: in vivo, human
Protocol: (§1) Pharmacokinetic (PK) data were obtained to guide optimal dose of afatinib. The time of maximum plasma concentration is reported between 2 and 5 hours after dosing.[18],[19]

[2] = Afatinib CSF concentration (lumbar puncture), HPLC-MS/MS; type: in vivo; settings: human, oral
Protocol: as §1

[3] = system: progressive or recurrent brain cancers; assay: Tumor response by MRI (RANO criteria), PFS, survival, cycles received; type: in vivo, human
Protocol: Tumor response was assessed by MRI after every 2 treatment cycles, or earlier if clinically indicated, according to the Response Assessment in Neuro-Oncology criteria.

[4] = read-out: Maximum concentration (Cmax) of afatinib in plasma; single dose of 40 mg, patients with solid tumors; cited from earlier work
[5] = system: U87MG human glioblastoma cells; settings: cited from earlier work
[6] = 21 patients evaluable for efficacy
[7] = dose cohort 1 (80 mg every 4 days)
[8] = dose cohort 1 (80 mg every 4 days), 2 response-evaluable
[9] = dose cohort 2 (120 mg every 4 days)
[10] = dose cohort 2 (120 mg every 4 days), 3 response-evaluable
[11] = dose cohort 3 (180 mg every 4 days)
[12] = dose cohort 3 (180 mg every 4 days), 6 response-evaluable
[13] = dose cohort 4 (280 mg every 7 days), 10 response-evaluable

CN(C)C/C=C/C(=O)Nc1cc2c(Nc3ccc(F)c(Cl)c3)ncnc2cc1O[C@H]1CCOC1 [Afatinib]
Highest afatinib level in blood, one patient ([1]; 120 mg every 4 days cohort): approximately 0.8 μM | Cmax ([1]; human, plasma, 3 hours (± 2 hours) post dosing, oral, all cohorts): < 392 ng/mL | Pre-dose (trough) afatinib levels in blood ([1]; pulse dosing, all cohorts): under 50 nM | Afatinib concentration in blood ([1]; subject 002, Cohort 1: 80 mg q4d, post dosing, C1D8): 12.323 ng/mL | Afatinib concentration in blood ([1]; subject 002, Cohort 1: 80 mg q4d, pre dosing, C1D8): 8.751 ng/mL | Afatinib concentration in blood ([1]; subject 002, Cohort 1: 80 mg q4d, pre dosing, C2D1): 11.693 ng/mL | Afatinib concentration in blood ([1]; subject 002, Cohort 1: 80 mg q4d, pre dosing, EOT (EoC2)): <LLOQ (EoC2) | Afatinib concentration in blood ([1]; subject 003, Cohort 1: 80 mg q4d, post dosing, C1D22): 30.096 ng/mL | Afatinib concentration in blood ([1]; subject 003, Cohort 1: 80 mg q4d, pre dosing, C1D22): 17.318 ng/mL | Afatinib concentration in blood ([1]; subject 004, Cohort 1: 80 mg q4d, pre dosing, C2D1): <LLOQ | Afatinib concentration in blood ([1]; subject 005, Cohort 2: 120 mg q4d, post dosing, C1D15): 37.68 ng/mL | Afatinib concentration in blood ([1]; subject 005, Cohort 2: 120 mg q4d, pre dosing, C2D1): 7.18 ng/mL | Afatinib concentration in blood ([1]; subject 006, Cohort 2: 120 mg q4d, post dosing, C1D15): 66.156 ng/mL | Afatinib concentration in blood ([1]; subject 006, Cohort 2: 120 mg q4d, pre dosing, C1D15): <LLOQ | Afatinib concentration in blood ([1]; subject 006, Cohort 2: 120 mg q4d, pre dosing, C2D1): 10.104 ng/mL | Afatinib concentration in blood ([1]; subject 006, Cohort 2: 120 mg q4d, pre dosing, C3D1): <LLOQ | Afatinib concentration in blood ([1]; subject 006, Cohort 2: 120 mg q4d, pre dosing, C4D1): 11.223 ng/mL | Afatinib concentration in blood ([1]; subject 008, Cohort 2: 120 mg q4d, post dosing, C1D8): 392.01 ng/mL | Afatinib concentration in blood ([1]; subject 008, Cohort 2: 120 mg q4d, pre dosing, C1D8): 22.243 ng/mL | Afatinib concentration in blood ([1]; subject 010, Cohort 3: 180 mg q4d, post dosing, C1D22): 324.265 ng/mL | Afatinib concentration in blood ([1]; subject 010, Cohort 3: 180 mg q4d, pre dosing, C1D22): 43.226 ng/mL | Afatinib concentration in blood ([1]; subject 011, Cohort 3: 180 mg q4d, post dosing, C1D8): 11.705 ng/mL | Afatinib concentration in blood ([1]; subject 011, Cohort 3: 180 mg q4d, pre dosing, C1D8): 11.616 ng/mL | Afatinib concentration in blood ([1]; subject 011, Cohort 3: 180 mg q4d, pre dosing, C3D1): 19.265 ng/mL | Afatinib concentration in blood ([1]; subject 012, Cohort 3: 180 mg q4d, post dosing, C1D15): 96.354 ng/mL | Afatinib concentration in blood ([1]; subject 012, Cohort 3: 180 mg q4d, post dosing, C2D1): 85.834 ng/mL | Afatinib concentration in blood ([1]; subject 012, Cohort 3: 180 mg q4d, pre dosing, C1D15): <LLOQ | Afatinib concentration in blood ([1]; subject 012, Cohort 3: 180 mg q4d, pre dosing, C2D1): <LLOQ | Afatinib concentration in blood ([1]; subject 012, Cohort 3: 180 mg q4d, pre dosing, EOT (EoC4)): 6.402 (EoC4) ng/mL | Afatinib concentration in blood ([1]; subject 013, Cohort 3: 180 mg q4d, pre dosing, C1D15): 10.374 ng/mL | Afatinib concentration in blood ([1]; subject 013, Cohort 3: 180 mg q4d, pre dosing, C2D1): 41.964 ng/mL | Afatinib concentration in blood ([1]; subject 013, Cohort 3: 180 mg q4d, pre dosing, C4D1): 6.787 ng/mL | Afatinib concentration in blood ([1]; subject 014, Expansion Cohort 3: 180 mg q4d, post dosing, C1D8): 60.605 ng/mL | Afatinib concentration in blood ([1]; subject 014, Expansion Cohort 3: 180 mg q4d, pre dosing, C1D8): 11.442 ng/mL | Afatinib concentration in blood ([1]; subject 015, Cohort 4: 280 mg q7d, post dosing, C1D15): 40.694 ng/mL | Afatinib concentration in blood ([1]; subject 015, Cohort 4: 280 mg q7d, pre dosing, EOT (EoC1)): <LLOQ (EoC1) | Afatinib concentration in blood ([1]; subject 016, Cohort 4: 280 mg q7d, post dosing, C1D15): 205.634 ng/mL | Afatinib concentration in blood ([1]; subject 017, Expansion Cohort 3: 180 mg q4d, post dosing, C1D15): 89.884 ng/mL | Afatinib concentration in blood ([1]; subject 017, Expansion Cohort 3: 180 mg q4d, pre dosing, C1D15): 10.425 ng/mL | Afatinib concentration in blood ([1]; subject 017, Expansion Cohort 3: 180 mg q4d, pre dosing, C2D1): 5.708 ng/mL | Afatinib concentration in blood ([1]; subject 017, Expansion Cohort 3: 180 mg q4d, pre dosing, C3D1): <LLOQ | Afatinib concentration in blood ([1]; subject 017, Expansion Cohort 3: 180 mg q4d, pre dosing, C4D1): 6.264 ng/mL | Afatinib concentration in blood ([1]; subject 018, Cohort 4: 280 mg q7d, post dosing, C1D15): 322.557 ng/mL | Afatinib concentration in blood ([1]; subject 018, Cohort 4: 280 mg q7d, post dosing, C2D1): 340.709 ng/mL | Afatinib concentration in blood ([1]; subject 018, Cohort 4: 280 mg q7d, pre dosing, C1D15): 9.603 ng/mL | Afatinib concentration in blood ([1]; subject 018, Cohort 4: 280 mg q7d, pre dosing, C2D1): 22.084 ng/mL | Afatinib concentration in blood ([1]; subject 018, Cohort 4: 280 mg q7d, pre dosing, C3D1): 14.169 ng/mL | Afatinib concentration in blood ([1]; subject 018, Cohort 4: 280 mg q7d, pre dosing, C4D1): 11.731 ng/mL | Afatinib concentration in blood ([1]; subject 018, Cohort 4: 280 mg q7d, pre dosing, EOT (EoC4)): 10.379 (EoC4) ng/mL | Afatinib concentration in blood ([1]; subject 019, Expansion Cohort 4: 280 mg q7d, post dosing, C1D8): 153.973 ng/mL | Afatinib concentration in blood ([1]; subject 019, Expansion Cohort 4: 280 mg q7d, pre dosing, C1D8): 9.857 ng/mL | Afatinib concentration in blood ([1]; subject 019, Expansion Cohort 4: 280 mg q7d, pre dosing, C2D1): 11.805 ng/mL | Afatinib concentration in blood ([1]; subject 019, Expansion Cohort 4: 280 mg q7d, pre dosing, EOT (EoC2)): <LLOQ (EoC2) | Afatinib concentration in blood ([1]; subject 020, Expansion Cohort 4: 280 mg q7d, post dosing, C1D15): 110.625 ng/mL | Afatinib concentration in blood ([1]; subject 020, Expansion Cohort 4: 280 mg q7d, pre dosing, C1D15): 8.586 ng/mL | Afatinib concentration in blood ([1]; subject 020, Expansion Cohort 4: 280 mg q7d, pre dosing, C2D1): 11.278 ng/mL | Afatinib concentration in blood ([1]; subject 021, Expansion Cohort 4: 280 mg q7d, post dosing, C1D15): 40.352 ng/mL | Afatinib concentration in blood ([1]; subject 021, Expansion Cohort 4: 280 mg q7d, pre dosing, C1D15): 5.966 ng/mL | Afatinib concentration in blood ([1]; subject 021, Expansion Cohort 4: 280 mg q7d, pre dosing, C2D1): <LLOQ | Afatinib concentration in blood ([1]; subject 021, Expansion Cohort 4: 280 mg q7d, pre dosing, EOT (C2D15)): <LLOQ (C2D15) | concentration at 3 h ([2]; 8 patients, approximately 3 hours after dosing in the first cycle, below lower limit of quantification): < 1.01 ng/mL | concentration at 3 h ([2]; not detected, lower limit of quantification): < 2.09 nM | Disease stabilization, % of patients [3, 6]: 14.3% | Disease stabilization, No. of patients [3, 6]: 3 | Partial response (RANO), % of patients [3, 6]: 9.5% | Partial response (RANO), No. of patients [3, 6]: 2 | Progressive disease, No. of patients [3, 6]: Sixteen | Median overall survival ([3]; all patients): 10.3 months | PFS, Median [3, 7]: 44 days | PFS, Range [3, 7]: 32 to 56 days | Best Response CR, No. of patients [3, 8]: 0 | Best Response PD, No. of patients [3, 8]: 2 | Best Response PR, No. of patients [3, 8]: 0 | Best Response SD, No. of patients [3, 8]: 0 | PFS, Median [3, 9]: 42 days | PFS, Range [3, 9]: 29 to 106 days | Best Response CR, No. of patients [3, 10]: 0 | Best Response PD, No. of patients [3, 10]: 2 | Best Response PR, No. of patients [3, 10]: 1 | Best Response SD, No. of patients [3, 10]: 0 | PFS, Median [3, 11]: 78 days | PFS, Range [3, 11]: 20 to 261 days | Best Response CR, No. of patients [3, 12]: 0 | Best Response PD, No. of patients [3, 12]: 4 | Best Response PR, No. of patients [3, 12]: 0 | Best Response SD, No. of patients [3, 12]: 2 | PFS, Median ([3]; dose cohort 4 (280 mg every 7 days)): 56 days | Best Response CR, No. of patients [3, 13]: 0 | Best Response PD, No. of patients [3, 13]: 8 | Best Response PR, No. of patients [3, 13]: 1 | Best Response SD, No. of patients [3, 13]: 1 | Median overall survival ([3]; glioblastoma): 5.2 months | Median progression-free survival ([3]; overall): 2.0 months | Progression-free survival rate at 6 months (PFS6) ([3]; patients with glioblastoma (n = 16)): 0% | Cmax [4]: ~10 nM | Inhibitory concentration of 25% (IC25) [5]: approximately 2 μM
